Key:
[1] = tested on: human H358 (G12C+) cells xenografted tumors; assay: H358 xenograft murine model, P1A4 IgG staining of harvested tumors by flow cytometry; type: in vivo, Mice
Protocol: In order to test whether ARS-1620 is accessible and targetable on the surface of treated cells in more complex systems, an H358 xenograft murine model was utilized. Mice were xenografted with human H358 (G12C+) cells and treated with either DMSO (placebo), ARS-1620 (1× at 200 mg/kg, or 3× at 200 mg/kg daily), or AMG-510 (1× at 100 mg/kg).

H358 (G12C+) cell lysate = assay: Western blot of cell lysate with P1A4 IgG; type: binding; conditions: treated H358 (G12C+) cells
[2] = tested on: T-cells of PBMCs co-incubated with MiaPaca-2 (KRas G12C) cells; assay: T cell activation (CD3/CD69) by flow cytometry after 72 hr co-incubation; type: cell-based; conditions: ARS1620, No Ab
Description: MiaPaca-2 (KRas G12C) cells were pulsed with either DMSO or ARS-1620 in order to label proteins without exerting a direct pharmacological effect on the health of the cells. […] Following the 72 hr treatment, cells were stained for T-cell receptors (CD3) and T-cell activation (CD69) and analyzed by flow cytometry.

KRas G12C = KRas G12C (Homo sapiens, UniProt P01116, G12C); conditions: Visscher et al. 2016; cited from earlier work
[3] = tested on: colocalization of ARS-1620 and MHC in a KRas G12C cell line; assay: Proximity ligation assay (PLA); type: cell-based; conditions: not with atropisomer or DMSO
Description: FIG. 5 is a schematic of the proximity ligation assay (PLA) for detecting colocalization of two antigens. […] Secondary antibodies are directed against the Fc region of the human or murine antibodies, and are attached to complimentary oligos used to assemble a complementary oligo for rolling circle amplification (RCA). Amplification only occurs if the two antigens are colocalized, and amplified oligos are detected with complimentary, fluorogenic oligos.
(§1) To test whether the cell surface exposed ARS-1620 was pMHC associated, a proximity ligation assay was used in which fluorescent signal is indicative of colocalization of ARS-1620 and MHC (FIG. 5). […] To test whether this colocalization was due to direct covalent reaction with MHC molecules already on the cell surface or due to traditional loading of intracellular MHCs with covalently modified intracellular peptides, a covalent capture ELISA was used to detect ARS-1620 labeled peptides eluted from cells by mild acid elution. A short acid treatment dissociates peptides from the pMHC on living cells, allowing capture of the presented peptides in the acidic buffer supernatant and subsequent covalent immobilization via their N-terminus for ELISA. […] The eluted peptides and peptides obtained from MHC immunoprecipitation are analyzed by mass spectrometry to precisely identify haptenized peptide sequences.

[4] = tested on: ARS-1620 labeled peptides eluted from KRas G12C cells; assay: Covalent capture ELISA of MHC eluted peptides (mild acid elution); type: cell-based; conditions: ARS-1620 treated KRas G12C samples, stained with P1A4 IgG
Description: as §1

wild type KRas = wild type KRas (Homo sapiens, UniProt P01116); conditions: Visscher et al. 2016; cited from earlier work
[5] = tested on: KRas G12C cell lines (H358, MiaPaca-2, SW1573); assay: Flow cytometry of cell-surface accessible ARS-1620 with P1A4; type: cell-based; conditions: several KRas G12C cell lines compared to a wild type KRas cell line
Description: Low background staining observed in the presence of DMSO treatment confirms that the interaction is ARS-1620 dependent.

Row | SMILES | P1A4 IgG staining of xenografted tumor cells ([1]; AMG-510 1× at 100 mg/kg) | off-targets of ARS-1620 detected by western blot with P1A4 (H358 (G12C+) cell lysate) | P1A4 IgG staining of xenografted tumor cells ([1]; ARS-1620 1× at 200 mg/kg or 3× at 200 mg/kg daily) | % CD3 + CD69+ [2] [%] | specificity for KRas G12C over other cellular proteins (KRas G12C) | fluorescent signal (colocalization of ARS-1620 with MHC) [3] | ARS-1620 haptenized peptides in MHC eluted peptides [4] | binding to wild type KRas lacking acquired cysteine (wild type KRas) | increase in cell surface ARS-1620 [5] [×]
1 | C=CC(=O)N1CCN(c2nc(=O)n(-c3c(C)ccnc3C(C)C)c3nc(-c4c(O)cccc4F)c(F)cc23)[C@@H](C)C1 [AMG-510] | no P1A4 staining | – | – | – | – | – | – | – | –
2 | C=CC(=O)N1CCN(c2ncnc3c(F)c(-c4c(O)cccc4F)c(Cl)cc23)CC1 (atropisomer, axis not shown) [ARS-1620] | – | additional off-targets | P1A4+ cell population emerged | 2.42 | high specificity | detectable | readily detected | no appreciable binding | 10

From patent US12486334B2, “Chemically controlled monoclonal antibody target engagement” (The Regents of the University of California, priority 2019, dated 2025)
